The text below walks through data of ChEMBL document CHEMBL2346651, “Structure-activity relationship study of tachykinin peptides for the development of novel neurokinin-3 receptor selective agonists” (Bioorg Med Chem, 2013).

Experiment [1] deals with T1, Substance-K receptor (Homo sapiens) (UniProt P21452).
T1 sequence (whole entry): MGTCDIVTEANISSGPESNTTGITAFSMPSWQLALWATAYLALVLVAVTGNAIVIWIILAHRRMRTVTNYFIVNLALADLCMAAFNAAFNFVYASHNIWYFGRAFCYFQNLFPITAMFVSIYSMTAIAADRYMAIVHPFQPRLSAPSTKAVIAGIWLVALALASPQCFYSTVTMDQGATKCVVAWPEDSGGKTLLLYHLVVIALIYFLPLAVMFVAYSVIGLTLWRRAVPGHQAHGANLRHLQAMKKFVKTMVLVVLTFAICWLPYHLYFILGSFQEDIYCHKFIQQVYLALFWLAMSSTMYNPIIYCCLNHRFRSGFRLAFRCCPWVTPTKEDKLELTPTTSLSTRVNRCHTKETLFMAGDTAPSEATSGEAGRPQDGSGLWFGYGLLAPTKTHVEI
In words: Displacement of [125I]-NKA from NK2R (unknown origin) transfected in CHO cells at 10 uM by gamma counting analysis. The class given is cell-based. (In general: In a radioligand displacement assay an active substance lowers the binding of a labelled ligand.)

In experiment [2] the target is Substance-P receptor (Homo sapiens) (UniProt P25103). In words: Displacement of [125I]-BH-SP from NK1R (unknown origin) transfected in CHO cells at 10 uM by gamma counting analysis. The class given is cell-based.
Chain of Substance-P receptor (Homo sapiens) (P25103 whole entry): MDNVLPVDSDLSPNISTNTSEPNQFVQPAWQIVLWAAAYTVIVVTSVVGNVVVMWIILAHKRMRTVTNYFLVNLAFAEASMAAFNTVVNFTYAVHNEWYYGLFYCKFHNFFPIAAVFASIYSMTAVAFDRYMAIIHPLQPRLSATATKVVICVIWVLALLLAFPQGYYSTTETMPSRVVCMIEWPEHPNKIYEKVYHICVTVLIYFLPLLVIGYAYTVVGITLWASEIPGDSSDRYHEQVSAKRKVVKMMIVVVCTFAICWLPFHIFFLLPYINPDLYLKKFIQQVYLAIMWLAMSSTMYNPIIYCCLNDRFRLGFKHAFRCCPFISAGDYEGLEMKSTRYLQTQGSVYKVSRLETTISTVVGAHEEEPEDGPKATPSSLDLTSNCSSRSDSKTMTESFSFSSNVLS
Experiment [3] deals with T2, Neuromedin-K receptor (Homo sapiens, UniProt P29371).
T2 sequence (P29371 whole entry): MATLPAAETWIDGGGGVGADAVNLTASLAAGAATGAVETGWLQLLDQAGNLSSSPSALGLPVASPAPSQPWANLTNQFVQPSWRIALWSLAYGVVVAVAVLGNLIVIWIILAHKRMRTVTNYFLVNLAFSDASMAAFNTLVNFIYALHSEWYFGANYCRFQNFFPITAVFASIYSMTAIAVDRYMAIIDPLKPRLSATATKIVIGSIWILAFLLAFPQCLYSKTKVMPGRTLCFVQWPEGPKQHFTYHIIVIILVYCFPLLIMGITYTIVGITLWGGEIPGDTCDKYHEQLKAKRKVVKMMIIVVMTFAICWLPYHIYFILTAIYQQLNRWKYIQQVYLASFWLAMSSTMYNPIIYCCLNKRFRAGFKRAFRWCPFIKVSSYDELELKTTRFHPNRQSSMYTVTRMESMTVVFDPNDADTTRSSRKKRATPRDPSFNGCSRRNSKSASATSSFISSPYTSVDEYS
In words: Agonist activity at NK3R (unknown origin) transfected in CHO cells assessed as calcium influx […]. The class given is functional, cell-based.

The target of experiment [4] is T2, Neuromedin-K receptor. In words: Displacement of ([125I]-His3, MePhe7)-NKB from NK3R (unknown origin) transfected in CHO cells by gamma counting analysis. Type of experiment: cell-based.

Residues, ends and D or L forms follow the SMILES beside them. A value given as a limit tells only on which side of the number the result lay.

Take `CSCC[C@H](NC(=O)[C@H](CC(C)C)NC(=O)CNC(=O)[C@H](Cc1ccccc1)N(C)C(=O)[C@H](Cc1ccccc1)NC(=O)[C@H](C)NC(=O)[C@H](CC(=O)O)NC(=O)[C@H](Cc1cnc[nH]1)NC(=O)[C@H](CCSC)NC(=O)[C@@H](N)CC(=O)O)C(N)=O` (HELM PEPTIDE1{D.M.H.D.A.F.[meF].G.L.M.[am]}$$$$V2.0): the inhibition was 33% in experiment [1] and less than 10% in experiment [2]. Besides, at Neuromedin-K receptor [3], the EC50 came to 0.012 nM. This compound also gave an IC50 at Neuromedin-K receptor [4] of 4.4 nM.

For `CSCC[C@H](NC(=O)[C@H](CC(C)C)NC(=O)CNC(=O)[C@H](Cc1ccccc1)N(C)C(=O)[C@H](Cc1ccccc1)NC(=O)[C@H](CCCN=C(N)N)NC(=O)[C@H](CC(=O)O)NC(=O)[C@H](Cc1cnc[nH]1)NC(=O)[C@H](CCSC)NC(=O)[C@@H](N)CC(=O)O)C(N)=O` (HELM PEPTIDE1{D.M.H.D.R.F.[meF].G.L.M.[am]}$$$$V2.0), the EC50 on Neuromedin-K receptor [3] was determined as 0.08 nM. This compound also showed an IC50 at Neuromedin-K receptor [4] of 2.5 nM.

On to `CSCC[C@H](NC(=O)[C@H](CC(C)C)NC(=O)CNC(=O)[C@H](Cc1ccccc1)N(C)C(=O)[C@H](Cc1ccccc1)NC(=O)[C@H](CCCNC(=N)N)NC(=O)[C@H](CC(=O)O)NC(=O)[C@H](Cc1cnc[nH]1)NC(=O)[C@H](CCSC)NC(=O)[C@@H](N)CC(=O)O)C(N)=O` (HELM PEPTIDE1{D.M.H.D.R.F.[meF].G.L.M.[am]}$$$$V2.0), for which the inhibition in experiment [1] was 62%; in experiment [2] it was 60%.

Turning to `CSCC[C@H](NC(=O)[C@H](CC(C)C)NC(=O)CNC(=O)[C@H](Cc1ccccc1)N(C)C(=O)[C@H](Cc1ccccc1)NC(=O)[C@H](CC(=O)O)NC(=O)[C@H](CC(=O)O)NC(=O)[C@@H]1CCCN1C(=O)[C@H](CCCN=C(N)N)NC(=O)[C@@H]1CCCN1C(=O)[C@@H](N)CCCCN)C(N)=O` (HELM PEPTIDE1{K.P.R.P.D.D.F.[meF].G.L.M.[am]}$$$$V2.0), the EC50 on Neuromedin-K receptor [3] was 5.04 nM. The compound further had an IC50 on Neuromedin-K receptor [4] of 31 nM.

`CSCC[C@H](NC(=O)[C@H](CC(C)C)NC(=O)CNC(=O)[C@H](Cc1ccccc1)N(C)C(=O)[C@H](Cc1ccccc1)NC(=O)[C@H](CC(=O)O)NC(=O)[C@H](CC(=O)O)NC(=O)[C@@H]1CCCN1C(=O)[C@H](CCCNC(=N)N)NC(=O)[C@@H]1CCCN1C(=O)[C@@H](N)CCCCN)C(N)=O` (HELM PEPTIDE1{K.P.R.P.D.D.F.[meF].G.L.M.[am]}$$$$V2.0): the inhibition was less than 10% in experiment [1] and 26% in experiment [2].

As for `CC[C@H](C)[C@H](NC(=O)[C@H](Cc1ccccc1)NC(=O)[C@H](C)NC(=O)[C@H](CC(=O)O)NC(=O)[C@H](CCCCN)NC(=O)[C@H](CO)NC(=O)[C@@H]1CCCN1C(=O)[C@@H]1CCC(=O)N1)C(=O)NCC(=O)N[C@@H](CC(C)C)C(=O)N[C@@H](CCSC)C(N)=O` [ELEDOISIN] (HELM PEPTIDE1{[Glp].P.S.K.D.A.F.I.G.L.M.[am]}$$$$V2.0), the results for the inhibition in experiment [1] and in experiment [2] were 95% and 100%, respectively. The compound also registered an IC50 on Neuromedin-K receptor [4] of 96 nM.

On to `CSCC[C@H](NC(=O)[C@H](CC(C)C)NC(=O)CNC(=O)[C@@H](NC(=O)[C@H](Cc1ccccc1)NC(=O)[C@H](CCC(N)=O)NC(=O)[C@H](CC(=O)O)NC(=O)[C@H](CO)NC(=O)[C@H](CCCCN)NC(=O)[C@@H]1CCCN1C(=O)[C@@H](NC(=O)[C@@H](N)CC(=O)O)C(C)C)C(C)C)C(N)=O` [KASSININ], for which, on Neuromedin-K receptor [3], the EC50 worked out at 0.21 nM. For the same compound, at Neuromedin-K receptor [4], the IC50 came to 100 nM.

Consider `CSCC[C@H](NC(=O)[C@H](CC(C)C)NC(=O)CNC(=O)[C@H](Cc1ccc(O)cc1)NC(=O)[C@H](Cc1ccccc1)NC(=O)[C@H](CCCCN)NC(=O)[C@H](CC(N)=O)NC(=O)[C@@H]1CCCN1C(=O)[C@H](CC(=O)O)NC(=O)[C@H](C)NC(=O)[C@@H]1CCC(=O)N1)C(N)=O` [PHYSALAEMIN], for which, at Neuromedin-K receptor [3], the EC50 was determined as 3.36 nM. This compound yielded an IC50 at Neuromedin-K receptor [4] of 1550 nM.

Turning to H-KPRPDQFYGLM-NH2, the values for the inhibition in experiment [1] and in experiment [2] were 95% and 101%, respectively.

For H-KPRPDQFYGLM-NH2 [BUFOKININ], the EC50 on Neuromedin-K receptor [3] was 10.7 nM. On Neuromedin-K receptor [4], the IC50 was 2990 nM.

One may read the inhibition as the relative decrease from the control value, in per cent. Usually EC50 stands for the midpoint of the concentration-response curve. The IC50 is the concentration needed to halve the response being measured. Read a low IC50 as greater potency.
